Laboratory results: ChEMBL document CHEMBL3885881, “DrugMatrix”

Organism: Rattus norvegicus
Assay: DrugMatrix - Regimen: Daily Repeat
Type: toxicity, organism-based, Sprague-Dawley
Design: regimen Daily Repeat, gender Male, age 6-8 weeks
Conditions: in vivo, po, route oral GAVAGE, vehicle .5 % CMC; for URIC ACID / ALANINE AMINOTRANSFERASE / ALBUMIN / ALKALINE PHOSPHATASE / ASPARTATE AMINOTRANSFERASE / BLOOD UREA NITROGEN / CARBON DIOXIDE / CHLORIDE / CHOLESTEROL / CREATINE PHOSPHOKINASE / CREATININE / GLUCOSE / LACTATE DEHYDROGENASE / LIPASE / PHOSPHORUS / POTASSIUM / SODIUM / TOTAL BILIRUBIN / TOTAL PROTEIN: tissue Plasma; for ABSOLUTE BASOPHIL / ABSOLUTE EOSINOPHIL / ABSOLUTE LYMPHOCYTE / ABSOLUTE MONOCYTE / ABSOLUTE SEGMENTED NEUTROPHIL / BASOPHIL / EOSINOPHIL / ERYTHROCYTE COUNT / HEMATOCRIT / HEMOGLOBIN / LEUKOCYTE COUNT / LYMPHOCYTE / MEAN CORPUSCULAR HEMOGLOBIN / MEAN CORPUSCULAR HEMOGLOBIN CONCENTRATION / MONOCYTE / NEUTROPHIL / NUCLEATED RED BLOOD CELLS / PLATELET COUNT: tissue Blood
[1] = 10 mg/kg, 120 h, dose level Low, time 5 day
[2] = 269 mg/kg, 72 h, dose level High, time 3 day
[3] = 269 mg/kg, 120 h, dose level High, time 5 day

O=C1C(CC[S+]([O-])c2ccccc2)C(=O)N(c2ccccc2)N1c1ccccc1 (stereo unspecified) [SULFINPYRAZONE]
URIC ACID (10 mg/kg, 72 h, dose level Low, time 3 day): 2 mg/dL | ABSOLUTE BASOPHIL [1]: 0 CELLS/uL | ABSOLUTE EOSINOPHIL [1]: 0 CELLS/uL | ABSOLUTE LYMPHOCYTE [1]: 8238.33 CELLS/uL | ABSOLUTE MONOCYTE [1]: 0 CELLS/uL | ABSOLUTE SEGMENTED NEUTROPHIL [1]: 761.67 CELLS/uL | BASOPHIL [1]: 0% | EOSINOPHIL [1]: 0% | ERYTHROCYTE COUNT [1]: 5.27 x10E6/uL | HEMATOCRIT [1]: 33.27% | HEMOGLOBIN [1]: 13.03 G/DL | LEUKOCYTE COUNT [1]: 9 x10E3/uL | LYMPHOCYTE [1]: 91.67% | MEAN CORPUSCULAR HEMOGLOBIN [1]: 24.77 pg | MEAN CORPUSCULAR HEMOGLOBIN CONCENTRATION [1]: 39.17 G/DL | MONOCYTE [1]: 0% | NEUTROPHIL [1]: 8.33% | NUCLEATED RED BLOOD CELLS [1]: 0 /100WBC | PLATELET COUNT [1]: 1182 x10E3/uL | ALANINE AMINOTRANSFERASE [1]: 51.33 u/L | ALBUMIN [1]: 4.23 G/DL | ALKALINE PHOSPHATASE [1]: 307 u/L | ASPARTATE AMINOTRANSFERASE [1]: 86.67 u/L | BLOOD UREA NITROGEN [1]: 15.33 mg/dL | CARBON DIOXIDE [1]: 30 mmol/L | CHLORIDE [1]: 102 MEQ/L | CHOLESTEROL [1]: 63.67 mg/dL | CREATINE PHOSPHOKINASE [1]: 204 u/L | CREATININE [1]: 0.19 mg/dL | GLUCOSE [1]: 139.33 mg/dL | LACTATE DEHYDROGENASE [1]: 126 u/L | LIPASE [1]: 9 u/L | PHOSPHORUS [1]: 11.67 mg/dL | POTASSIUM [1]: 6.44 MEQ/L | SODIUM [1]: 148.53 MEQ/L | TOTAL BILIRUBIN [1]: 0.27 mg/dL | TOTAL PROTEIN [1]: 6.3 G/DL | URIC ACID [1]: 1 mg/dL | ABSOLUTE BASOPHIL [2]: 0 CELLS/uL | ABSOLUTE EOSINOPHIL [2]: 0 CELLS/uL | ABSOLUTE LYMPHOCYTE [2]: 15229.67 CELLS/uL | ABSOLUTE MONOCYTE [2]: 176.67 CELLS/uL | ABSOLUTE SEGMENTED NEUTROPHIL [2]: 1627 CELLS/uL | BASOPHIL [2]: 0% | EOSINOPHIL [2]: 0% | ERYTHROCYTE COUNT [2]: 4.48 x10E6/uL | HEMATOCRIT [2]: 28.7% | HEMOGLOBIN [2]: 11.63 G/DL | LEUKOCYTE COUNT [2]: 17.03 x10E3/uL | LYMPHOCYTE [2]: 89.67% | MEAN CORPUSCULAR HEMOGLOBIN [2]: 26.03 pg | MEAN CORPUSCULAR HEMOGLOBIN CONCENTRATION [2]: 40.6 G/DL | MONOCYTE [2]: 1% | NEUTROPHIL [2]: 9.33% | NUCLEATED RED BLOOD CELLS [2]: 0 /100WBC | PLATELET COUNT [2]: 1194 x10E3/uL | ALBUMIN [2]: 3.87 G/DL | ALKALINE PHOSPHATASE [2]: 319.33 u/L | ASPARTATE AMINOTRANSFERASE [2]: 92.67 u/L | BLOOD UREA NITROGEN [2]: 16 mg/dL | CARBON DIOXIDE [2]: 21.33 mmol/L | CHLORIDE [2]: 105.67 MEQ/L | CHOLESTEROL [2]: 78.67 mg/dL | CREATINE PHOSPHOKINASE [2]: 438 u/L | CREATININE [2]: 0.18 mg/dL | GLUCOSE [2]: 147 mg/dL | LACTATE DEHYDROGENASE [2]: 291 u/L | LIPASE [2]: 10.33 u/L | PHOSPHORUS [2]: 11.97 mg/dL | POTASSIUM [2]: 6.1 MEQ/L | SODIUM [2]: 145.03 MEQ/L | TOTAL BILIRUBIN [2]: 0.23 mg/dL | TOTAL PROTEIN [2]: 5.5 G/DL | URIC ACID [2]: 1.4 mg/dL | ABSOLUTE BASOPHIL [3]: 0 CELLS/uL | ABSOLUTE EOSINOPHIL [3]: 0 CELLS/uL | ABSOLUTE LYMPHOCYTE [3]: 20046 CELLS/uL | ABSOLUTE MONOCYTE [3]: 55 CELLS/uL | ABSOLUTE SEGMENTED NEUTROPHIL [3]: 2899 CELLS/uL | BASOPHIL [3]: 0% | EOSINOPHIL [3]: 0% | ERYTHROCYTE COUNT [3]: 5.28 x10E6/uL | HEMATOCRIT [3]: 32.4% | HEMOGLOBIN [3]: 13.17 G/DL | LEUKOCYTE COUNT [3]: 23 x10E3/uL | LYMPHOCYTE [3]: 87.33% | MEAN CORPUSCULAR HEMOGLOBIN [3]: 24.9 pg | MEAN CORPUSCULAR HEMOGLOBIN CONCENTRATION [3]: 40.63 G/DL | MONOCYTE [3]: 0.33% | NEUTROPHIL [3]: 12.33% | NUCLEATED RED BLOOD CELLS [3]: 0 /100WBC | PLATELET COUNT [3]: 1314.67 x10E3/uL | ALANINE AMINOTRANSFERASE [3]: 59.33 u/L | ALBUMIN [3]: 4.13 G/DL | ALKALINE PHOSPHATASE [3]: 291.33 u/L | ASPARTATE AMINOTRANSFERASE [3]: 70.33 u/L | BLOOD UREA NITROGEN [3]: 15 mg/dL | CARBON DIOXIDE [3]: 26.67 mmol/L | CHLORIDE [3]: 102.33 MEQ/L | CHOLESTEROL [3]: 77 mg/dL | CREATINE PHOSPHOKINASE [3]: 224.33 u/L | CREATININE [3]: 0.25 mg/dL | GLUCOSE [3]: 143.67 mg/dL | LACTATE DEHYDROGENASE [3]: 78.33 u/L | LIPASE [3]: 9 u/L | PHOSPHORUS [3]: 12.43 mg/dL | POTASSIUM [3]: 6.73 MEQ/L | SODIUM [3]: 147 MEQ/L | TOTAL BILIRUBIN [3]: 0.23 mg/dL | TOTAL PROTEIN [3]: 6 G/DL | URIC ACID [3]: 1.53 mg/dL
